Measurements as given in publication PMC6409085, “Three odorant-binding proteins are involved in the behavioral response of Sogatella furcifera to rice plant volatiles” (PeerJ, 2019).
Values joined by “and” are separate entries in the source; they are usually repeats but may differ in a detail not shown here. Equal values may be shown once.

Experiments:
[1] = system: S. furcifera adults; assay: Y-tube olfactometer behavioral trials; format: in vivo, Sogatella furcifera; conditions: odorant 50 µL/L vs hexane; adults
Procedure: To test the effect of the rice odorants on the behavior of S. furcifera adults, a glass Y-tube olfactometer (inner diameter 2.0 cm, stem 13 cm, arms 10 cm, angle of arms 60°) according to the previously described ([Wang et al., 2014b]) was employed. An airtight cubic box (70 by 45 by 30 cm) was used to position Y-tube, and the Y-tube was lighted by a 30-W filament lamp 25 cm above it. Air that filtered through activated charcoal and humidified with doubly distilled water was pumped in both arms at a flow rate of 300 mL/min. Two filter paper strips (10 by 1 cm) containing 100 µL odorant source (50 µL/L) and 100 µL control hexane were placed in two holding chambers in the front of the olfactometer, respectively. A S. furcifera adult (2 days after emergence, starved for 0.5 h) was randomly chosen and placed in the stem of the Y-tube. Each insect was given 10 min to choose between the two arms of the Y-tube, the choice was noted if the planthopper reached one-half of the arms’ lengths and stayed in the arm for more than 1 min. Besides, S. furcifera was considered as having no orientation preference. Forty-five individuals were used for each compound, each insect used only once. And the dual-choice experiment was done in an environmentally controlled room (25 ± 1 °C and 50% RH). A Chi-squared test was used to analyze the behavioral assay data by using SPSS19.0 (SPSS Inc., Chicago, IL, USA) software.

[2] = target: SfurOBP11 (Sogatella furcifera, UniProt V5T6E3); assay: biochemical; format: binding
Procedure, shortened: (§1)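 Fluorescence competitive binding with 1-NPN as reporter: 2.0 µM protein and 2.0 µM 1-NPN in 50 mM Tris-HCl pH 7.4, odorant added at 2–20 µM final. Excitation 337 nm, emission 390–490 nm read 2 min after addition, triplicates. Ki = IC50/(1 + [1-NPN]/K1-NPN).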

[3] = target: SfurOBP3 (Sogatella furcifera, UniProt V5T818); assay: biochemical; format: binding; conditions: for Fluorescence competitive binding assay, fluorescence intensity: OBP3, three replicate columns
Procedure, shortened: as §1

[4] = target: SfurOBP2 (Sogatella furcifera, UniProt V5T759); assay: biochemical; format: binding
Procedure, shortened: as §1

[5] = target: SfurOBP1 (Sogatella furcifera, UniProt V5T8N5); assay: biochemical; format: binding; conditions: for Fluorescence competitive binding assay, fluorescence intensity: OBP1, three replicate columns
Procedure, shortened: as §1

Sequence of SfurOBP1 (V5T8N5 entry or part of it): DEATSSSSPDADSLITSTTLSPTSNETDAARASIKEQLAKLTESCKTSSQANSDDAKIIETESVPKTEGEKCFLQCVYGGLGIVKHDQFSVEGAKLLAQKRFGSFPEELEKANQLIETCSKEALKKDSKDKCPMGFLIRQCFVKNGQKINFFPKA
Sequence of SfurOBP3 (V5T818 entry or part of it): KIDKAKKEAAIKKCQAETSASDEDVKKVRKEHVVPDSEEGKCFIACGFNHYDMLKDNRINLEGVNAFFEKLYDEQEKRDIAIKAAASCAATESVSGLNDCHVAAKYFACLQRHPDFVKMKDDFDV
Sequence of SfurOBP11 (V5T6E3 entry or part of it): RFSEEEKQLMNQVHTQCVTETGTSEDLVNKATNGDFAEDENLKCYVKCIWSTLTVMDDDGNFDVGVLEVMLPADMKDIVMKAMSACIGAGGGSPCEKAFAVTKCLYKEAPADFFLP
Sequence of SfurOBP2 (V5T759 entry or part of it): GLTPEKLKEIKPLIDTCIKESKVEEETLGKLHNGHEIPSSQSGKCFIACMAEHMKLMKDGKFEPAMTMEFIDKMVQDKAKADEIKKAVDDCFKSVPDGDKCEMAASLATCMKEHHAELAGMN

IC50 ([2]; SfurOBP11, protein and 1-NPN both 2.0 µM, competitor 2-20 µM, read-out: IC50): > 20 µM
Fluorescence intensity, fluorescence competitive binding assay, OBP11 ([2]; ligand concentration 2, replicate 1): 37643
Fluorescence intensity, fluorescence competitive binding assay, OBP11 ([2]; ligand concentration 2, replicate 2): 35290
Fluorescence intensity, fluorescence competitive binding assay, OBP11 ([2]; ligand concentration 2, replicate 3): 44360
Fluorescence intensity, fluorescence competitive binding assay, OBP11 ([2]; ligand concentration 4, replicate 1): 35859
Fluorescence intensity, fluorescence competitive binding assay, OBP11 ([2]; ligand concentration 4, replicate 2): 39342
Fluorescence intensity, fluorescence competitive binding assay, OBP11 ([2]; ligand concentration 4, replicate 3): 34938
Fluorescence intensity, fluorescence competitive binding assay, OBP11 ([2]; ligand concentration 6, replicate 1): 34140
Fluorescence intensity, fluorescence competitive binding assay, OBP11 ([2]; ligand concentration 6, replicate 2): 38169
Fluorescence intensity, fluorescence competitive binding assay, OBP11 ([2]; ligand concentration 6, replicate 3): 36155
Fluorescence intensity, fluorescence competitive binding assay, OBP11 ([2]; ligand concentration 8, replicate 1): 32705
Fluorescence intensity, fluorescence competitive binding assay, OBP11 ([2]; ligand concentration 8, replicate 2): 34472
Fluorescence intensity, fluorescence competitive binding assay, OBP11 ([2]; ligand concentration 8, replicate 3): 34378
Fluorescence intensity, fluorescence competitive binding assay, OBP11 ([2]; ligand concentration 10, replicate 1): 32486
Fluorescence intensity, fluorescence competitive binding assay, OBP11 ([2]; ligand concentration 10, replicate 2): 33152
Fluorescence intensity, fluorescence competitive binding assay, OBP11 ([2]; ligand concentration 10, replicate 3): 33818
Fluorescence intensity, fluorescence competitive binding assay, OBP11 ([2]; ligand concentration 12, replicate 1): 28113
Fluorescence intensity, fluorescence competitive binding assay, OBP11 ([2]; ligand concentration 12, replicate 2): 29890
Fluorescence intensity, fluorescence competitive binding assay, OBP11 ([2]; ligand concentration 12, replicate 3): 30957
Fluorescence intensity, fluorescence competitive binding assay, OBP11 ([2]; ligand concentration 14, replicate 1): 27880
Fluorescence intensity, fluorescence competitive binding assay, OBP11 ([2]; ligand concentration 14, replicate 2): 28227
Fluorescence intensity, fluorescence competitive binding assay, OBP11 ([2]; ligand concentration 14, replicate 3): 28574
Fluorescence intensity, fluorescence competitive binding assay, OBP11 ([2]; ligand concentration 16, replicate 1): 24059
Fluorescence intensity, fluorescence competitive binding assay, OBP11 ([2]; ligand concentration 16, replicate 2): 25490
Fluorescence intensity, fluorescence competitive binding assay, OBP11 ([2]; ligand concentration 16, replicate 3): 25182
Fluorescence intensity, fluorescence competitive binding assay, OBP11 ([2]; ligand concentration 18, replicate 1): 30643
Fluorescence intensity, fluorescence competitive binding assay, OBP11 ([2]; ligand concentration 18, replicate 2): 29725
Fluorescence intensity, fluorescence competitive binding assay, OBP11 ([2]; ligand concentration 18, replicate 3): 31591
Fluorescence intensity, fluorescence competitive binding assay, OBP11 ([2]; ligand concentration 20, replicate 1): 30015
Fluorescence intensity, fluorescence competitive binding assay, OBP11 ([2]; ligand concentration 20, replicate 2): 28576
Fluorescence intensity, fluorescence competitive binding assay, OBP11 ([2]; ligand concentration 20, replicate 3): 24669
Fluorescence competitive binding assay, fluorescence intensity ([3]; ligand concentration 2): 69777 and 64977 and 64069
Fluorescence competitive binding assay, fluorescence intensity ([3]; ligand concentration 4): 69897 and 66654 and 59281
Fluorescence competitive binding assay, fluorescence intensity ([3]; ligand concentration 6): 72805 and 63593 and 63408
Fluorescence competitive binding assay, fluorescence intensity ([3]; ligand concentration 8): 68908 and 64822 and 61456
Fluorescence competitive binding assay, fluorescence intensity ([3]; ligand concentration 10): 63843 and 54968 and 55110
Fluorescence competitive binding assay, fluorescence intensity ([3]; ligand concentration 12): 59021 and 51372 and 52724
Fluorescence competitive binding assay, fluorescence intensity ([3]; ligand concentration 14): 52703 and 46147 and 50940
Fluorescence competitive binding assay, fluorescence intensity ([3]; ligand concentration 16): 47036 and 45518 and 44907
Fluorescence competitive binding assay, fluorescence intensity ([3]; ligand concentration 18): 49989 and 48773 and 43710
Fluorescence competitive binding assay, fluorescence intensity ([3]; ligand concentration 20): 40319 and 40656 and 42300
IC50 ([3]; SfurOBP3, protein and 1-NPN both 2.0 µM, competitor 2-20 µM, read-out: IC50): > 20 µM
IC50 ([4]; SfurOBP2, protein and 1-NPN both 2.0 µM, competitor 2-20 µM, read-out: IC50): > 20 µM
Fluorescence competitive binding assay, OBP2 (raw fluorescence reading) ([4]; ligand concentration 2 (unit not given), replicate column 1 of 3): 23899
Fluorescence competitive binding assay, OBP2 (raw fluorescence reading) ([4]; ligand concentration 2 (unit not given), replicate column 2 of 3): 21462
Fluorescence competitive binding assay, OBP2 (raw fluorescence reading) ([4]; ligand concentration 2 (unit not given), replicate column 3 of 3): 22264
Fluorescence competitive binding assay, OBP2 (raw fluorescence reading) ([4]; ligand concentration 4 (unit not given), replicate column 1 of 3): 25374
Fluorescence competitive binding assay, OBP2 (raw fluorescence reading) ([4]; ligand concentration 4 (unit not given), replicate column 2 of 3): 25147
Fluorescence competitive binding assay, OBP2 (raw fluorescence reading) ([4]; ligand concentration 4 (unit not given), replicate column 3 of 3): 24357
Fluorescence competitive binding assay, OBP2 (raw fluorescence reading) ([4]; ligand concentration 6 (unit not given), replicate column 1 of 3): 25139
Fluorescence competitive binding assay, OBP2 (raw fluorescence reading) ([4]; ligand concentration 6 (unit not given), replicate column 2 of 3): 24429
Fluorescence competitive binding assay, OBP2 (raw fluorescence reading) ([4]; ligand concentration 6 (unit not given), replicate column 3 of 3): 24096
Fluorescence competitive binding assay, OBP2 (raw fluorescence reading) ([4]; ligand concentration 8 (unit not given), replicate column 1 of 3): 22380
Fluorescence competitive binding assay, OBP2 (raw fluorescence reading) ([4]; ligand concentration 8 (unit not given), replicate column 2 of 3): 22288
Fluorescence competitive binding assay, OBP2 (raw fluorescence reading) ([4]; ligand concentration 8 (unit not given), replicate column 3 of 3): 21248
Fluorescence competitive binding assay, OBP2 (raw fluorescence reading) ([4]; ligand concentration 10 (unit not given), replicate column 1 of 3): 20934
Fluorescence competitive binding assay, OBP2 (raw fluorescence reading) ([4]; ligand concentration 10 (unit not given), replicate column 2 of 3): 21198
Fluorescence competitive binding assay, OBP2 (raw fluorescence reading) ([4]; ligand concentration 10 (unit not given), replicate column 3 of 3): 20778
Fluorescence competitive binding assay, OBP2 (raw fluorescence reading) ([4]; ligand concentration 12 (unit not given), replicate column 1 of 3): 19074
Fluorescence competitive binding assay, OBP2 (raw fluorescence reading) ([4]; ligand concentration 12 (unit not given), replicate column 2 of 3): 19350
Fluorescence competitive binding assay, OBP2 (raw fluorescence reading) ([4]; ligand concentration 12 (unit not given), replicate column 3 of 3): 18397
Fluorescence competitive binding assay, OBP2 (raw fluorescence reading) ([4]; ligand concentration 14 (unit not given), replicate column 1 of 3): 16875
Fluorescence competitive binding assay, OBP2 (raw fluorescence reading) ([4]; ligand concentration 14 (unit not given), replicate column 2 of 3): 19948
Fluorescence competitive binding assay, OBP2 (raw fluorescence reading) ([4]; ligand concentration 14 (unit not given), replicate column 3 of 3): 17641
Fluorescence competitive binding assay, OBP2 (raw fluorescence reading) ([4]; ligand concentration 16 (unit not given), replicate column 1 of 3): 16016
Fluorescence competitive binding assay, OBP2 (raw fluorescence reading) ([4]; ligand concentration 16 (unit not given), replicate column 2 of 3): 16681
Fluorescence competitive binding assay, OBP2 (raw fluorescence reading) ([4]; ligand concentration 16 (unit not given), replicate column 3 of 3): 14367
Fluorescence competitive binding assay, OBP2 (raw fluorescence reading) ([4]; ligand concentration 18 (unit not given), replicate column 1 of 3): 17119
Fluorescence competitive binding assay, OBP2 (raw fluorescence reading) ([4]; ligand concentration 18 (unit not given), replicate column 2 of 3): 16819
Fluorescence competitive binding assay, OBP2 (raw fluorescence reading) ([4]; ligand concentration 18 (unit not given), replicate column 3 of 3): 15979
Fluorescence competitive binding assay, OBP2 (raw fluorescence reading) ([4]; ligand concentration 20 (unit not given), replicate column 1 of 3): 16047
Fluorescence competitive binding assay, OBP2 (raw fluorescence reading) ([4]; ligand concentration 20 (unit not given), replicate column 2 of 3): 15694
Fluorescence competitive binding assay, OBP2 (raw fluorescence reading) ([4]; ligand concentration 20 (unit not given), replicate column 3 of 3): 13725
Fluorescence competitive binding assay, fluorescence intensity ([5]; ligand concentration 2 (μM)): 6522 and 6473 and 6498
Fluorescence competitive binding assay, fluorescence intensity ([5]; ligand concentration 4 (μM)): 5655 and 6432 and 6908
Fluorescence competitive binding assay, fluorescence intensity ([5]; ligand concentration 6 (μM)): 8453 and 7604 and 7714
Fluorescence competitive binding assay, fluorescence intensity ([5]; ligand concentration 8 (μM)): 8297 and 7919 and 6967
Fluorescence competitive binding assay, fluorescence intensity ([5]; ligand concentration 10 (μM)): 6386 and 8717 and 6918
Fluorescence competitive binding assay, fluorescence intensity ([5]; ligand concentration 12 (μM)): 6193 and 7108 and 6694
Fluorescence competitive binding assay, fluorescence intensity ([5]; ligand concentration 14 (μM)): 6199 and 6820 and 8443
Fluorescence competitive binding assay, fluorescence intensity ([5]; ligand concentration 16 (μM)): 5457 and 5916 and 5787
Fluorescence competitive binding assay, fluorescence intensity ([5]; ligand concentration 18 (μM)): 6097 and 9706 and 8104
Fluorescence competitive binding assay, fluorescence intensity ([5]; ligand concentration 20 (μM)): 6801 and 6290 and 6295
IC50 ([5]; SfurOBP1, protein and 1-NPN both 2.0 µM, competitor 2-20 µM, read-out: IC50): > 20 µM
SMILES: CCCCCCC=CCO [2-nonen-1-ol]
number of insects choosing hexane arm [1]: 12
number of insects choosing volatilies arm [1]: 18
number of insects failed (no choice) [1]: 10
